Source: patent US9522891B2, “Pyridazine derivatives and use thereof as medicaments for treating microRNA viral infection” (INSTITUTE OF PHARMACOLOGY AND TOXICOLOGY ACADEMY OF …, priority 2010, dated 2016)
Values after ≈ are worked out from the molar mass of the structure shown.

How the values were obtained:
[1] = Bioorg Med Chem. 2009, 17: 621-624; cited from earlier work
rhinovirus 3 (HRV-3) [2] = test: Measurement of inhibition index of compound; format: cell-based; conditions: highest dilution times of viral inhibition/nontoxic limit dilution times
Method: The inhibition index of drug was calculated: inhibition index=highest dilution times of viral inhibition/nontoxic limit dilution times.

HeLa cells = test: Determination of the maximum nontoxic dose of the compound; format: cell-based; conditions: observed each 24 h for 3 days
Method: The drug was dissolved in DMSO, diluted with cell maintenance medium by 20 times, then diluted stepwise by 2 times to form working solutions with different concentrations. HeLa cells were inoculated on 96-well plate in an amount of 10,000 (0.1 mL) per well, added with 0.1 mL maintenance medium, incubated at 37° C. in adherence manner, sucked to remove maintenance medium, replaced it with 0.2 mL of compound working solution, and maintenance medium was used as control. The growth of cell was observed each 24 h, for 3 days.

rhinovirus 3 (HRV-3) [3] = test: Maximum viral inhibition concentration; format: cell-based; conditions: compound concentration giving 100% inhibition of TCID50 about 100; virus added in doubling manner
rhinovirus (HRV) = conditions: cited from earlier work
rhinovirus 3 (HRV-3) [4] = test: Therapeutic administration, cell protection from CPE; format: cell-based
rhinovirus 3 (HRV-3) [5] = test: Measurement of half effective concentration (therapy); format: cell-based; conditions: Enterovirus, HRV3, HeLa cells, TCID50 about 100, 48 h, prevents 50% cells from CPE
rhinovirus 3 (HRV-3) [6] = test: Prophylactic administration, cell protection from CPE; format: cell-based; conditions: 100 ng/ml, TCID50 about 100, 3 days

## CCOc1ccc(OCCN2CCN(c3cc(Cl)nnc3Cl)CC2)cc1 [Control 2, 3,6-dichloro-4-{4-[2-(4-ethoxylphenoxy)ethyl]piperazin-1-yl}pyridazine]
[1]
  toxicity: relatively low toxicity
Rhinovirus 3 (HRV-3) [2]
  Inhibition index: 1/625
HeLa cells
  Maximum nontoxic dose: 31.3 µg/mL
Rhinovirus 3 (HRV-3) [3]
  Maximum inhibition virus titer: ≦200 TCID50
Rhinovirus (HRV); Bioorg Med Chem. 2009, 17: 621-624
  index of selectivity: relatively high index of selectivity
Rhinovirus (HRV); compared to Pirodavir, Bioorg Med Chem. 2009, 17: 621-624
  inhibition activity to HRV: activity comparable to Pirodavir
Rhinovirus 3 (HRV-3) [4]; therapeutic administration condition
  protection effects: good protection effects
Rhinovirus 3 (HRV-3) [4]; therapeutic administration, 100 ng/mL, TCID50 100, HeLa cells, 48 h
  Cell protection rate: 100%
Rhinovirus 3 (HRV-3) [5]
  EC50: 0.025 µg/mL (≈ 0.0629 µM)
Rhinovirus 3 (HRV-3) [6]
  protection effects in preventing phagocytosis (CPE): good protection effects

## CCOc1ccc(OCCCN2CCN(c3ccc(Cl)nn3)CC2)cc1 [Example 1, 3-{4-[3-(4-ethoxylphenoxy)propyl]piperazin-1-yl}-6-chloropyridazine]
other
  melting point: 125 to 127 °C

## Cc1ccc(OCCCN2CCN(c3ccc(Cl)nn3)CC2)cc1 [Example 2, 3-{4-[3-(4-methylphenoxy)propyl]piperazin-1-yl}-6-chloropyridazine]
other
  melting point: 129 to 131 °C

## CCc1ccc(OCCCN2CCN(c3ccc(Cl)nn3)CC2)cc1 [Example 3, 3-{4-[3-(4-ethylphenoxy)propyl]piperazin-1-yl}-6-chloropyridazine]
other
  melting point: 123 to 125 °C

## CC(C)c1ccc(OCCCN2CCN(c3ccc(Cl)nn3)CC2)cc1 [Example 4, 3-{4-[3-(4-isopropylphenoxy)propyl]piperazin-1-yl}-6-chloropyridazine]
other
  melting point: 125 to 127 °C

## COC(=O)c1ccc(OCCCN2CCN(c3ccc(Cl)nn3)CC2)cc1 [Example 5, 4-{3-[4-(6-chloropyridazin-3-yl)piperazin-1-yl]propoxy} benzoic acid methyl ester]
other
  melting point: 128 to 130 °C

## CCOC(=O)c1ccc(OCCCN2CCN(c3ccc(Cl)nn3)CC2)cc1 [Example 6, 4-{3-[4-(6-chloropyridazin-3-yl)piperazin-1-yl]propoxy}benzoic acid ethyl ester]
other
  melting point: 125 to 127 °C

## CCOC(=O)c1ccc(OCCC2CCN(c3ccc(C)nn3)CC2)cc1 [Pirodavir]
Rhinovirus (HRV); in vivo and in vitro, literature
  activity against rhinovirus (HRV): significant activity
